Legend:
[1] = test system: bacteria; details: relative to azithromycin; cited from earlier work
[2] = test system: Jurkat; test: Cytotoxicity of the substances (TC50), Jurkat; assay type: cell-based; details: Jurkat cells
[3] = test system: IL-10 production in J774 cells; test: Cytokine production in stimulated J774 cells, IL-10 (ELISA); assay type: cell-based; details: Normal (LPS 0.1 μg/mL)
Experimental: (§1) Various analogs were compared in vitro to determine key properties. Antibacterial effect was determined in representative Gram negative (E. coli) and positive (S. aureus) organisms using the method of example 16. Effects on lung inflammation were compared using the method of example 32. BALF (Bronchoalveolar Lavage Fluid) TNFa levels are determined by ELISA. In vitro toxicity is determined by growth inhibition of Jurkat lymphocytes in DMEM medium as determined using Alamar Blue reaction. Effects on cytokine production are determined in J774 cells stimulated with either LPS (0.1 μg/mL) or medium from J774 cells stimulated for 24 h with 0.2 μg/mL LPS. Cytokines are determined by ELISA and expressed as % DMSO control at 50 μM inhibitor concentration.

[4] = test system: DSS induced colitis; test: Dextransulfate (DSS) model of inflammatory bowel disease; assay type: in vivo, female C57BLK6 mice; details: DSS 2.5% W/V in drinking water; relative to known compounds such as sulfasalazine
Description: Dextransulfate (DSS) is used to induce an inflammatory state in the gut of mice by providing it in the drinking water. In our model, DSS (ICN) was used at 2.5% W/V in drinking water for female C57BLK6 mice (ca. 20 g). Weight was monitored daily as were diarrhea, overall condition and occult blood. Depending on severity, animals were recovered at 5, 7 or 12 days after onset of DSS treatment, and colon and intestine material recovered for histological examination.

[5] = test system: HepG2; test: Cytotoxicity of the substances (TC50), HepG2; assay type: cell-based; set-up: unit not given beside the values; details: HepG2 cells
[6] = Exposure by LCMS analysis of organs; assay type: in vivo, bALBc mice
Experimental: (§2) To determine the potential for toxic effects of compound 2 in higher animals, compound 2 was administered to bALBc mice orally as a suspension up to a dose of 400 μmole/kg/day for 7 days.
Exposure to the compound was confirmed using LCMS analysis of organs. […] A mild increase in Compound 2 concentration relative the average bodily dose in liver and spleen is clear after 2 h. In kidney the increase appears later, after 24 h.

[7] = test system: GM_CSF production in J774 cells; test: Cytokine production in stimulated J774 cells, GM-CSF (ELISA); assay type: cell-based; details: Cond. (medium from J774 cells stimulated 24 h with 0.2 μg/mL LPS)
Experimental: as §1

[8] = Ames test (mutagenicity); assay type: cell-based; details: up to 800 μg/plate (approx. 70 μM); absence and presence of metabolically active liver extract
Experimental: The Ames test is well known in the art. To determine the mutagenic potential of compound 2, it was conducted up to a concentration of 800 μg/plate (approx. 70 μM, considering 20 ml medium in a petri dish).

[9] = test system: Jurkat lymphocytes; test: In vitro toxicity: growth inhibition of Jurkat lymphocytes, Alamar Blue; assay type: cell-based; details: DMEM medium
Experimental: as §1

[10] = Toxicity on oral administration for 7 days; assay type: in vivo; details: orally as a suspension up to 400 μmole/kg/day for 7 days
Experimental: as §2

[11] = test system: plasma TNFalpha; test: Liver inflammation induced by LPS, plasma TNFalpha; assay type: in vivo, Lewis rats; details: 10 or 50 mg/kg; LPS 4 mg/kg i.p.; relative to vehicle treated controls
Experimental: FIG. 12. Plasma TNFa production in Lewis rats in which liver damage is induced via injection of LPS (4 mg/kg), data are the mean of N=8 and are plotted with the 95% confidence interval.
Application of high doses of LPS, e.g. 4 mg/kg i.p. results in the induction of liver inflammation and necrosis. This is reflected in signs such as elevated plasma TNFalpha levels. […] Data are recorded in FIG. 12.

[12] = test system: HeLa; test: Cytotoxicity of the substances (TC50), HeLa; assay type: cell-based; details: HeLa cells
[13] = test system: IL-12 production in J774 cells; test: Cytokine production in stimulated J774 cells, IL-12 (ELISA); assay type: cell-based; details: Normal (LPS 0.1 μg/mL)
Experimental: as §1

[14] = molecular target: T1, hERG (Homo sapiens, UniProt Q12809); test: hERG inhibition in Chinese hamster ovary cells expressing the hERG c-DNA (K+ currents); assay type: cell-based; details: CHO cells expressing hERG
T1 construct: expressed in transfected cells; host or cells: Chinese hamster ovary (CHO) cells
Experimental: A major drawback of macrocycles is the inhibition of cardiac ion channels and specifically the channel encoded by the hERG gene inhibition of which is associated with “long Q-T” syndrome in some patients. To determine risk of hERG inhibition, Compounds 2 and 3 were incubated with Chinese hamster ovary cells expressing the hERG c-DNA resulting in detectable K+ currents associated with hERG at the cell surface.

[15] = test system: BALF TNFa; test: Airway inflammation by inhaled LPS, BALF TNFa by ELISA; assay type: in vivo, DBA or Swiss female mice; details: 20 μmol/kg i.n., 30 minutes prior to LPS challenge
Experimental: as §1
Airway inflammation is induced by inhalation of solutions containing bacterial LPS. 10 μg per mouse is provided intranasally in phosphate buffered saline. 90 minutes after challenge, bronchioalveolar lavage fluid is recovered from the lung using PBS (0.5 mL) injected into the lung via the trachea and frozen prior to analysis for cytokines by ELISA. TNFa is the primary cytokine measured. Compound 2 and other test substances are dissolved in 0.02% citric acid in water, and the pH of the resulting solution is set to 6.2. Compounds are administered 30 minutes prior to challenge either as 25 μL solutions for intranasal use, or as 125 μL volumes for p.o. application in 25 g DBA or Swiss female mice. The results of said interventions include reduction of lung and/or plasma cytokines. Example data are recorded in FIG. 13.

[16] = test system: TNFa production in J774 cells; test: Cytokine production in stimulated J774 cells, TNFa (ELISA); assay type: cell-based; details: Normal (LPS 0.1 μg/mL)
Experimental: as §1

[17] = test system: collagen arthritis model; test: Collagen arthritis model; assay type: in vivo, Male DBA mice; details: administered prior to or at the start of arthritis; 2 to 40 μmol kg−1; vs vehicle
Experimental: The data are obtained using the collagen arthritis model. Male DBA mice (18-22 g) are subcutaneously injected at the tail base with bovine type II collagen (100 μL) on day 1 and day 21. Onset of arthritis occurs over the next 5 days. Treatments are typically selected from A) a mixture of a Compound such as Compound 2 (between 2 to 40 μmol kg^−1) and the vehicle which is typically 1% citratic acid in water or similar. The effect of treatment on arthritis is monitored daily by assessing body weight, paw thickness and qualitative evidence of arthritis (scored from 0 to 3, 0=no evidence of arthritis or inflammation, 3=frank swelling of the paw). At the end of qualitative assessment, animals are sacrificed for toxicological, histological and pathological analysis.

[18] = test system: E. coli; test: Antibiotic dilution assay, E. coli; assay type: cell-based; details: Escherichia coli; liquid medium, OD600; read-out: Bacterial IC 50 (μM) E. Coli
Experimental: (§3) The antibiotic activity of the compounds was determined via antibiotic dilution assay. After filling 100 μl growth medium into all the wells of a 96 well plate, the compounds were diluted from 1 mM to 0.010 μM. The growth control wells contained growth medium instead of inhibitory agents. The inhibitory control contained Compound 3 (200 μM). Suspensions of E. coli and B. pumilus in growth medium with an approximate OD600 of 0.03-0.04 were added to the diluted compounds, incubated for 6-8 hours on the shaker at 750 rpm and 37° C. until the growth control had reached an OD600 of about 0.6-0.8. The OD600 was then determined on a standard plate reader.
as §1

[19] = test system: S. aureus; test: Antibiotic dilution assay, S. aureus; assay type: cell-based; details: Staphylococcus aureus; liquid medium, OD600; read-out: Bacterial IC 50 (μM) S. Aureus
Experimental: as §3, §1

T1 sequence (Q12809 whole entry): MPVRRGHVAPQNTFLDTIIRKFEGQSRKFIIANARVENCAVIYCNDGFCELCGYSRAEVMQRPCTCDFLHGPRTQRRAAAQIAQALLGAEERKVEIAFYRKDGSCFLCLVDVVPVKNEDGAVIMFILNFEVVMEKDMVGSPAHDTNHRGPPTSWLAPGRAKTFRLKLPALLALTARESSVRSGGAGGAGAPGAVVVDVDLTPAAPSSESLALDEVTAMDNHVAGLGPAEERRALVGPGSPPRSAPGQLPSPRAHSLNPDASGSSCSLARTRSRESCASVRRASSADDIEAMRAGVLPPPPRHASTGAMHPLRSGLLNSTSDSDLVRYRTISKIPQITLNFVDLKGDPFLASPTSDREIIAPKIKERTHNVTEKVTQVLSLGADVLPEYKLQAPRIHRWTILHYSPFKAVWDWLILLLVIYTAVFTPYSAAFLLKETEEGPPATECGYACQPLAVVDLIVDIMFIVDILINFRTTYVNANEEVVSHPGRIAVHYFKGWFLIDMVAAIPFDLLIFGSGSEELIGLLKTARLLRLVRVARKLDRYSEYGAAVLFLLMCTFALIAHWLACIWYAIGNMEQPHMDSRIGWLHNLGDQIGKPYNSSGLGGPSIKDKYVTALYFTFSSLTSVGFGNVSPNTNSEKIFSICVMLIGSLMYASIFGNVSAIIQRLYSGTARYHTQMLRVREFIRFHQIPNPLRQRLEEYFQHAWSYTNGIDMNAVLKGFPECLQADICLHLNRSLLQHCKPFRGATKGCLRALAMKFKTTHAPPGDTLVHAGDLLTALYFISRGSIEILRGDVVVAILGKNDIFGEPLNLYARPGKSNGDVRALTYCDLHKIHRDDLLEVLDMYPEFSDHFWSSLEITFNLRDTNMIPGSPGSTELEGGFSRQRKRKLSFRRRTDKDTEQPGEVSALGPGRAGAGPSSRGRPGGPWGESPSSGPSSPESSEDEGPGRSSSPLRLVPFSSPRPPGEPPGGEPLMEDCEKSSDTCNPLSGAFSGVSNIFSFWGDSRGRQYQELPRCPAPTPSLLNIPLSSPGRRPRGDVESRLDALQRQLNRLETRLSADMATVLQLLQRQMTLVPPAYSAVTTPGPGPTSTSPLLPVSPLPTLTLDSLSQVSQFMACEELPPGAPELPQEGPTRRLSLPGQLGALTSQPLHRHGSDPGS

CC[C@H]1OC(=O)[C@H](C)[C@@H](O)[C@H](C)[C@@H](O[C@@H]2O[C@H](C)C[C@H](N(C)C)[C@H]2O)[C@](C)(O)C[C@@H](C)CN(C)[C@H](C)[C@@H](O)[C@]1(C)O [decladinosyl azithromycin]
antibacterial effectiveness, fold less effective than the cladinosylated molecule [1]: ca. 5 fold

CC[C@H]1OC(=O)[C@H](C)C2(O)O[C@](C)(C[C@@H](C)CN(C)[C@H](C)[C@@H](O)[C@]1(C)O)[C@H](O[C@@H]1O[C@H](C)CC(N(C)C)[C@H]1O)[C@H]2C (stereo partly drawn) [Compound 2]
TC50 Jurkat [2]: 40 | Cytokine production in J774 cells as % DMSO control, IL-10 Normal 50 μM [3]: 115 % DMSO control | diarrhea severity [4]: reductions in diarrhea severity | mortality [4]: reduced mortality | weight loss [4]: protection against weight loss | TC50 HepG2 [5]: 90 | accumulation in organs ([6]; kidney, liver and spleen, LCMS, oral dosing): slightly accumulated in kidney, liver and spleen | fraction of the initial value detectable in organs ([6]; within 24 h): more than 50% | Cytokine production in J774 cells as % DMSO control, GM_CSF Cond. 50 μM [7]: 160 % DMSO control | mutagenic activity (Ames test) [8]: no mutagenic activity | Jurkat Cell toxicity Normal growth limit [9]: 100 µM | gross toxic effect / weight gain [10]: continued to gain weight during this period suggesting no gross toxic effect | plasma TNF levels [11]: reduce plasma TNF levels relative to vehicle treated controls | TC50 HeLa [12]: >100 | Cytokine production in J774 cells as % DMSO control, IL-12 Normal 50 μM [13]: 42 % DMSO control | hERG inhibition, potency relative to Compound 3 [14]: less potent inhibitor than the commercially available Compound 3 | BALF TNFa (% Vehicle) 20 μmol/kg i.n. [15]: 75 % Vehicle | Cytokine production in J774 cells as % DMSO control, TNFa Normal 50 μM [16]: 68 % DMSO control | arthritis score [17]: reductions in score | loss in body weight associated with arthritis [17]: reduces loss in body weight | paw swelling [17]: reductions in score, paw swelling | IC50 [18]: 1000 µM | IC50 [19]: 1340 µM

— patent US9145436B2 (priority 2010, dated 2015)
